In ChEMBL document CHEMBL1201862, “PubChem BioAssay data set” (2004):
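All cell lines were grown in 96-well plates and treated with compound for 48 hours. At the GI50, growth is halved.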 Active and inactive are the calls of the source. Rule as the data show it: active = GI50 up to about 1.1 µM and inactive = higher.

Columns and labels:
Assay in all cases: NCI anticancer screen, dose series, 48 h
786-0 = tested on: 786-0
A498 = tested on: A498
A549 = tested on: A549
ACHN = tested on: ACHN
BT-549 = tested on: BT-549
CAKI-1 = tested on: CAKI-1
DU-145 = tested on: DU-145
HCC 2998 = tested on: HCC 2998
HCT-116 = tested on: HCT-116
HCT-15 = tested on: HCT-15
HOP-62 = tested on: HOP-62
HT-29 = tested on: HT-29
Hs-578T = tested on: Hs-578T
IGROV-1 = tested on: IGROV-1
K562 = tested on: K562
KM12 = tested on: KM12
LOX IMVI = tested on: LOX IMVI
M14 = tested on: M14
MCF7 = tested on: MCF7
MDA-MB-231 = tested on: MDA-MB-231
MDA-MB-435 = tested on: MDA-MB-435
MDA-N = tested on: MDA-N
Malme-3M = tested on: Malme-3M
NCI-H23 = tested on: NCI-H23
NCI-H460 = tested on: NCI-H460
NCI-H522 = tested on: NCI-H522
NCI/ADR-RES = tested on: NCI/ADR-RES
OVCAR-3 = tested on: OVCAR-3
OVCAR-4 = tested on: OVCAR-4
OVCAR-5 = tested on: OVCAR-5
PC-3 = tested on: PC-3
RPMI-8226 = tested on: RPMI-8226
RXF 393 = tested on: RXF 393
SF-295 = tested on: SF-295
SK-MEL-28 = tested on: SK-MEL-28
SK-MEL-2 = tested on: SK-MEL-2
SK-OV-3 = tested on: SK-OV-3
SN12C = tested on: SN12C
SNB-19 = tested on: SNB-19
SNB-75 = tested on: SNB-75
SR = tested on: SR
SW-620 = tested on: SW-620
T47D = tested on: T47D
TK-10 = tested on: TK-10
U-251 = tested on: U-251
UACC-257 = tested on: UACC-257
UACC-62 = tested on: UACC-62
UO-31 = tested on: UO-31

Cl/C(=N\c1cccc2ccccc12)N(c1ccccc1)c1ccccc1
GI50 (786-0): > 100 µM (inactive)
GI50 (A498): > 100 µM (inactive)
GI50 (A549): 56.5 µM (inactive)
GI50 (ACHN): 66.7 µM (inactive)
GI50 (BT-549): > 100 µM (inactive)
GI50 (CAKI-1): > 100 µM (inactive)
GI50 (DU-145): > 100 µM (inactive)
GI50 (HCC 2998): 19.7 µM (inactive)
GI50 (HCT-116): 73.5 µM (inactive)
GI50 (HCT-15): > 100 µM
GI50 (HOP-62): > 100 µM (inactive)
GI50 (HT-29): 52.7 µM (inactive)
GI50 (Hs-578T): > 100 µM (inactive)
GI50 (IGROV-1): > 100 µM (inactive)
GI50 (K562): 31.8 µM (inactive)
GI50 (KM12): 75 µM (inactive)
GI50 (LOX IMVI): > 100 µM (inactive)
GI50 (M14): 43 µM (inactive)
GI50 (MCF7): 35.2 µM (inactive)
GI50 (MDA-MB-231): > 100 µM (inactive)
GI50 (MDA-MB-435): > 100 µM (inactive)
GI50 (MDA-N): 52 µM (inactive)
GI50 (Malme-3M): 39 µM (inactive)
GI50 (NCI-H23): > 100 µM (inactive)
GI50 (NCI-H460): 28.4 µM (inactive)
GI50 (NCI-H522): 41.2 µM (inactive)
GI50 (NCI/ADR-RES): > 100 µM (inactive)
GI50 (OVCAR-3): 60.1 µM (inactive)
GI50 (OVCAR-4): > 100 µM (inactive)
GI50 (OVCAR-5): > 100 µM (inactive)
GI50 (PC-3): 44.6 µM (inactive)
GI50 (RPMI-8226): 27.1 µM (inactive)
GI50 (RXF 393): > 100 µM (inactive)
GI50 (SF-295): 67.6 µM (inactive)
GI50 (SK-MEL-28): > 100 µM (inactive)
GI50 (SK-MEL-2): > 100 µM (inactive)
GI50 (SK-OV-3): > 100 µM (inactive)
GI50 (SN12C): > 100 µM (inactive)
GI50 (SNB-19): > 100 µM (inactive)
GI50 (SNB-75): > 100 µM (inactive)
GI50 (SR): 25.4 µM (inactive)
GI50 (SW-620): 92.7 µM (inactive)
GI50 (T47D): 61.4 µM (inactive)
GI50 (TK-10): 72.3 µM (inactive)
GI50 (U-251): 57.7 µM (inactive)
GI50 (UACC-257): 70 µM (inactive)
GI50 (UACC-62): 75.2 µM (inactive)
GI50 (UO-31): > 100 µM (inactive)
